# Assay results reported in patent publication US20180036433A1, “COMPOUNDS FOR THE DIAGNOSIS OR TREATMENT OF DISORDERS ASSOCIATED WITH PROTEIN OR PEPTIDE OLIGOMERS” (Agency for Science, Technology and Research, priority 2014, published 2018).
# Assays:
# [1] = target: Aβ1-40 on-fibril pathway oligomers (Homo sapiens, UniProt P05067); assay: Time-dependent Aβ fibril formation monitored by dye fluorescence; type: binding; settings: dye 5 μM, Aβ 20 μM, 37° C.
# [2] = target: monomers, oligomers and fibrils of Aβ (synthetic Aβ1-40) (Homo sapiens, UniProt P05067); assay: Fluorescence response to pre-formed Aβ monomers, oligomers and fibrils; type: binding; settings: dye 5 μM, Aβ 20 μM
# Sequence of monomers, oligomers and fibrils of Aβ (synthetic Aβ1-40) (P05067 672-711): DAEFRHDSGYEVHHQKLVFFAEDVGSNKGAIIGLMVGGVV
# Sequence of Aβ1-40 on-fibril pathway oligomers (P05067 672-711): as above
smiles,measurement,setting,value
"Cc1ccc2c(c1)sc(-c1ccc(N(C)C)cc1)[n+]2C.[Cl-] [ThT, Thioflavin T]",fluorescence over the time course of Aβ fibril formation,[1],reached a maximum fluorescence after about 1-day and plateaus
same,"fluorescence response to Aβ monomers, oligomers and fibrils",[2],"fluorescence response in the increasing order of freshly prepared Aβ monomers, followed by oligomer and fibrils"
